The values that follow come from patent US20230085307A1, “PYRIDAZINONE COMPOUND AND HERBICIDE” (NISSAN CHEMICAL CORPORATION, priority 2019, published 2023).

For one assay, the system named is Chinese sprangletop. Put plainly: Test Example 3: herbicidal effect by foliage application, Wagner pot (Table 18, symbol D). The format is in vivo, chinese sprangletop (Leptochloa chinensis). The gist of the method: (§1)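 Plants were sown in alluvial soil held under 0.1–0.5 cm standing water and grown 14 days in a greenhouse at 25–30 °C. An emulsifiable formulation, water-diluted to the set dose, was then sprayed onto the foliage, and effects were scored three weeks later using previously defined criteria.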

Another assay relates to wild oat. The experiment in a line: Test Example 5: herbicidal effect by foliage application, plastic box (Table 20, symbol I). It counts as in vivo, wild oat (Avena fatua). The note with it: foliage application, AAH 320 g/ha. The gist of the method: (§2)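 Plants sown in sterilized diluvial soil and grown 14 days in a greenhouse at 25° C to 30° C, then sprayed on the foliage with the compound's emulsion diluted in water to a predetermined herbicide amount. Injury to weeds and crops scored three weeks after application on a visual rating scale.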

The next assay relates to late watergrass. The experiment in a line: Test Example 1: herbicidal activity, application before weed generation under submerged conditions (Table 16, symbol A). It counts as in vivo, late watergrass (Echinochloa oryzicola). The note with it: 320 g/ha applied herbicide. The gist of the method:
(§3)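 Emulsion formulation, water-diluted to set dose, was put onto the flooded surface (4 cm depth, alluvial soil) the same day weeds were sown and 2.5-leaf rice transplanted. After 3 weeks at 25-30 °C under glass, each species was rated 0 (≤5% kill) to 5 (≥90% kill).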

For another assay, the system named is blackgrass. The experiment in a line: Test Example 5: herbicidal effect by foliage application, plastic box (Table 20, symbol J). The format is in vivo, blackgrass (Alopecurus myosuroides). The following applies: foliage application, AAH 320 g/ha. Summed up: as §2
A further assay concerns southern crabgrass. Put plainly: Test Example 5: herbicidal effect by foliage application, plastic box (Table 20, symbol F). It counts as in vivo, southern crabgrass (Digitaria ciliaris). The note with it: foliage application, AAH 320 g/ha. Summed up: as §2
For assay [1], the system named is barnyard grass. The experiment in a line: Test Example 3: herbicidal effect by foliage application, Wagner pot (Table 18, symbol H). It counts as in vivo, barnyard grass (Echinochloa crus-galli). The gist of the method: as §1
The next assay relates to rice flat sedge. Put plainly: Test Example 3: herbicidal effect by foliage application, Wagner pot (Table 18, symbol E). It counts as in vivo, rice flat sedge (Cyperus iria). The gist of the method: as §1
For another assay, the system named is windgrass. Put plainly: Test Example 5: herbicidal effect by foliage application, plastic box (Table 20, symbol L). The format is in vivo, windgrass (Apera spica-venti). The following applies: foliage application, AAH 320 g/ha. The gist of the method:
as §2

In another assay the test system is false cleavers. Put plainly: Test Example 5: herbicidal effect by foliage application, plastic box (Table 20, symbol Q). It counts as in vivo, false cleavers (Galium spurium). The following applies: foliage application, AAH 320 g/ha. Summed up:
as §2

The subject of a further assay is redroot pigweed. Put plainly: Test Example 5: herbicidal effect by foliage application, plastic box (Table 20, symbol N). It counts as in vivo, redroot pigweed (Amaranthus retroflexus). The note with it: foliage application, AAH 320 g/ha. Summed up:
as §2

The test system of assay [2] is barnyard grass. Put plainly: Test Example 5: herbicidal effect by foliage application, plastic box (Table 20, symbol H). The following applies: foliage application, AAH 320 g/ha. The format is in vivo, barnyard grass (Echinochloa crus-galli). Summed up:
as §2

A further assay concerns lambsquarters. Put plainly: Test Example 5: herbicidal effect by foliage application, plastic box (Table 20, symbol O). It counts as in vivo, lambsquarters (Chenopodium album). The following applies: foliage application, AAH 320 g/ha. The gist of the method:
as §2

The next assay has as its system green foxtail. The experiment in a line: Test Example 5: herbicidal effect by foliage application, plastic box (Table 20, symbol G). The note with it: foliage application, AAH 320 g/ha. It counts as in vivo, green foxtail (Setaria viridis). Summed up:
as §2

The subject of a further assay is chickweed. Put plainly: Test Example 5: herbicidal effect by foliage application, plastic box (Table 20, symbol P). It counts as in vivo, common chickweed (Stellaria media). The following applies: foliage application, AAH 320 g/ha. The gist of the method:
as §2

A further assay has as its system Italian ryegrass. Put plainly: Test Example 5: herbicidal effect by foliage application, plastic box (Table 20, symbol K). The format is in vivo, Italian ryegrass (Lolium multiflorum). The following applies: foliage application, AAH 320 g/ha. Summed up: as §2
The next assay concerns Japanese bulrush. Put plainly: Test Example 1: herbicidal activity, application before weed generation under submerged conditions (Table 16, symbol B). The format is in vivo, Japanese bulrush (Schoenoplectus juncoides). The following applies: 320 g/ha applied herbicide. Summed up: as §3
A further assay deals with persian speedwell. The experiment in a line: Test Example 5: herbicidal effect by foliage application, plastic box (Table 20, symbol R). The format is in vivo, Persian speedwell (Veronica persica). The note with it: foliage application, AAH 320 g/ha. The gist of the method:
as §2

The test system of the next assay is velvetleaf. Put plainly: Test Example 5: herbicidal effect by foliage application, plastic box (Table 20, symbol M). It counts as in vivo, velvetleaf (Abutilon theophrasti). The note with it: foliage application, AAH 320 g/ha. Summed up:
as §2

The subject of a further assay is oval-leafed pondweed. Put plainly: Test Example 1: herbicidal activity, application before weed generation under submerged conditions (Table 16, symbol C). The format is in vivo, oval-leafed pondweed (Monochoria vaginalis). The following applies: 320 g/ha applied herbicide. Summed up:
as §3

The mark [3] stands for this setting: amount of applied herbicide 320 g/ha.
Where [4] appears, read: evaluated three weeks after application.

With `Cc1ccccc1C(=O)Oc1c(C)nn(C)c(=O)c1-c1c(-c2ccc3c(c2)OCCO3)sc2ccccc12` [1-093], in the assay with Chinese sprangletop (320 g/ha), the “herbicidal effect on D (Chinese sprangletop), rating 0-5” value is 0 (Herbicidal rate of 5% or less (almost no effect)). In the assay with wild oat (three weeks after application), the “I: wild oat, herbicidal effect” value is 0 (Herbicidal rate of 5% or less (almost no effect)). Also, in the assay with late watergrass, the “Herbicidal effect on A: late watergrass (grade 0-5)” value was 3 (Herbicidal rate of 40% or more and less than 70%). Also, the “J: blackgrass, herbicidal effect” value in the assay on blackgrass (three weeks after application) is on record as 0 (Herbicidal rate of 5% or less (almost no effect)). The “F: southern crabgrass, herbicidal effect” value with southern crabgrass (three weeks after application) is recorded as 0 (Herbicidal rate of 5% or less (almost no effect)). Besides, the “herbicidal effect on H (barnyard grass), rating 0-5” value in the assay with barnyard grass [1] (320 g/ha) was 3 (Herbicidal rate of 40% or more and less than 70%). Also, the “herbicidal effect on E (rice flat sedge), rating 0-5” value in the assay with rice flat sedge (320 g/ha) is listed as 5 (Herbicidal rate of 90% or more (almost completely withered)). Moreover, the “L: windgrass, herbicidal effect” value with windgrass (three weeks after application) is recorded as 0 (Herbicidal rate of 5% or less (almost no effect)). The “Q: false cleavers, herbicidal effect” value in the assay on false cleavers (three weeks after application) was 0 (Herbicidal rate of 5% or less (almost no effect)). Further, the “N: redroot pigweed, herbicidal effect” value in the assay on redroot pigweed (three weeks after application) is 3 (Herbicidal rate of 40% or more and less than 70%). In the assay on barnyard grass [2] (three weeks after application), the “H: barnyard grass, herbicidal effect” value is 0 (Herbicidal rate of 5% or less (almost no effect)). Moreover, the “O: lambsquarters, herbicidal effect” value in the assay on lambsquarters (three weeks after application) was 2 (Herbicidal rate of 20% or more and less than 40%). Moreover, the “G: green foxtail, herbicidal effect” value with green foxtail (three weeks after application) is 0 (Herbicidal rate of 5% or less (almost no effect)). In the assay on chickweed (three weeks after application), the “P: chickweed, herbicidal effect” value is 1 (Herbicidal rate of 5% or more and less than 20%). The “K: Italian ryegrass, herbicidal effect” value in the assay with Italian ryegrass (three weeks after application) is listed as 0 (Herbicidal rate of 5% or less (almost no effect)). The “Herbicidal effect on B: Japanese bulrush (grade 0-5)” value in the assay on Japanese bulrush is 1 (Herbicidal rate of 5% or more and less than 20%). For the same compound, the “R: persian speedwell, herbicidal effect” value in the assay with persian speedwell (three weeks after application) was 4 (Herbicidal rate of 70% or more and less than 90%). Moreover, the “M: velvetleaf, herbicidal effect” value in the assay on velvetleaf (three weeks after application) was 5 (Herbicidal rate of 90% or more (almost completely withered)). In addition, the “Herbicidal effect on C: oval-leafed pondweed (grade 0-5)” value in the assay on oval-leafed pondweed is listed as 0 (Herbicidal rate of 5% or less (almost no effect)).

For `C=CCOc1cccc(-c2sc3ccc(F)cc3c2-c2c(O)c(C)nn(C)c2=O)c1` [2-269], the “herbicidal effect on D: Chinese sprangletop” value with Chinese sprangletop (setting [3]) is given as 0 (Herbicidal rate of 5% or less (almost no effect)). In addition, the “I: wild oat, herbicidal effect (criteria 0-5)” value in the assay with wild oat (setting [4]) is listed as 0 (Herbicidal rate of 5% or less (almost no effect)). Moreover, in the assay with late watergrass, the “Herbicidal effect on A: late watergrass (grade 0-5)” value was 3 (Herbicidal rate of 40% or more and less than 70%). For the same compound, the “J: blackgrass, herbicidal effect (criteria 0-5)” value with blackgrass (setting [4]) is 0 (Herbicidal rate of 5% or less (almost no effect)). Besides, the “F: southern crabgrass, herbicidal effect (criteria 0-5)” value with southern crabgrass (setting [4]) is recorded as 0 (Herbicidal rate of 5% or less (almost no effect)). For the same compound, in the assay with barnyard grass [1] (setting [3]), the “herbicidal effect on H: barnyard grass” value is 3 (Herbicidal rate of 40% or more and less than 70%). The “herbicidal effect on E: rice flat sedge” value with rice flat sedge (setting [3]) is 3 (Herbicidal rate of 40% or more and less than 70%). Further, the “L: windgrass, herbicidal effect (criteria 0-5)” value with windgrass (setting [4]) is 0 (Herbicidal rate of 5% or less (almost no effect)). For the same compound, the “Q: false cleavers, herbicidal effect (criteria 0-5)” value in the assay on false cleavers (setting [4]) was 0 (Herbicidal rate of 5% or less (almost no effect)). Besides, in the assay with redroot pigweed (setting [4]), the “N: redroot pigweed, herbicidal effect (criteria 0-5)” value is listed as 0 (Herbicidal rate of 5% or less (almost no effect)). Besides, in the assay on barnyard grass [2] (setting [4]), the “H: barnyard grass, herbicidal effect (criteria 0-5)” value is recorded as 0 (Herbicidal rate of 5% or less (almost no effect)). The “O: lambsquarters, herbicidal effect (criteria 0-5)” value in the assay on lambsquarters (setting [4]) is recorded as 0 (Herbicidal rate of 5% or less (almost no effect)). The “G: green foxtail, herbicidal effect (criteria 0-5)” value in the assay on green foxtail (setting [4]) is 0 (Herbicidal rate of 5% or less (almost no effect)). In the assay on chickweed (setting [4]), the “P: chickweed, herbicidal effect (criteria 0-5)” value was 3 (Herbicidal rate of 40% or more and less than 70%). The “K: Italian ryegrass, herbicidal effect (criteria 0-5)” value in the assay with Italian ryegrass (setting [4]) is recorded as 0 (Herbicidal rate of 5% or less (almost no effect)). Also, the “Herbicidal effect on B: Japanese bulrush (grade 0-5)” value in the assay with Japanese bulrush is 3 (Herbicidal rate of 40% or more and less than 70%). In the assay with persian speedwell (setting [4]), the “R: persian speedwell, herbicidal effect (criteria 0-5)” value is 1 (Herbicidal rate of 5% or more and less than 20%). For the same compound, in the assay on velvetleaf (setting [4]), the “M: velvetleaf, herbicidal effect (criteria 0-5)” value is reported as 0 (Herbicidal rate of 5% or less (almost no effect)). Besides, the “Herbicidal effect on C: oval-leafed pondweed (grade 0-5)” value in the assay on oval-leafed pondweed is 3 (Herbicidal rate of 40% or more and less than 70%).
